# Like-named read-outs stand apart in the source and are kept apart here.
# Assays:
# [1] = tested on: p53 signaling (p53RE-bla HCT-116 cells); experiment: cells; format: cell-based
# [2] = tested on: p53 signaling (p53RE-bla HCT-116 cells)
# [3] = tested on: p53 signaling (p53RE-bla HCT-116 cells); remark: listed apart in the source
# [4] = tested on: p53 signaling (p53RE-bla HCT-116 cells); experiment: cells; conditions: Homo sapiens
# [5] = tested on: p53 signaling (p53RE-bla HCT-116 cells); experiment: cells; conditions: Homo sapiens; remark: listed apart in the source
# [6] = tested on: p53 signaling (p53RE-bla HCT-116 cells); experiment: cells; format: cell-based; conditions: for Emax: HCT-116, read-out: efficacy
# [7] = tested on: p53 signaling (p53RE-bla HCT-116 cells); experiment: cells; format: cell-based; conditions: Homo sapiens; for EC50: HCT-116; for Emax: HCT-116, read-out: efficacy
# [8] = Homo sapiens, HCT-116, read-out: p53 activation EC50, No MS
# [9] = read-out: p53 activation EC50, No MS
# [10] = HCT-116, read-out: p53 activation EC50, RLM
# [11] = HCT-116, read-out: p53 activation EC50, HLM
# [12] = HCT-116, read-out: p53 activation efficacy
# [13] = read-out: p53 activation EC50, RLM
# [14] = HCT-116, read-out: p53 activation efficacy, primary screening
SMILES,"p53 activation Efficacy, No MS [1]","p53 activation EC50, HLM [3]","Viability EC50, HLM (p53RE-bla HCT-116 cells)","Viability EC50, No MS (p53RE-bla HCT-116 cells)","Viability EC50, RLM (p53RE-bla HCT-116 cells)","Viability Efficacy, HLM (p53RE-bla HCT-116 cells)","Viability Efficacy, No MS (p53RE-bla HCT-116 cells)","Viability Efficacy, RLM (p53RE-bla HCT-116 cells)","EC50 [4, 10]","EC50 [5, 11]","p53 activation EC50, No MS [1]","EC50 ([6]; Homo sapiens, HCT-116, 0.5 h)",EC50 [7],EC50 ([4]; HCT-116),"Emax ([4]; HCT-116, read-out: efficacy)",also measured
"Oc1c(Cl)cc(Cl)c(Cl)c1Cl [2,3,4,6-Tetrachlorophenol]",39.2893%,inactive,inactive,inactive,inactive,inactive,inactive,inactive,44.8 µM,34.9 µM,,,,,,"EC50 [1, 8]: 17.7 µM; Emax ([1]; Homo sapiens, HCT-116, read-out: p53 activation Efficacy, No MS): 37.3%; EC50 [1, 9]: 34.6 µM; p53 activation EC50, RLM [2]: inactive"
CCOP(=S)(OCC)SCn1nnc2ccccc2c1=O [Azinphos-ethyl],inactive,inactive,inactive,inactive,inactive,inactive,inactive,inactive,,1.98 µM,inactive,22.8 µM,2.16 µM,2.17 µM,47.5%,
CCOP(=S)(OCC)OC(Cl)C(Cl)(Cl)Cl (stereo not shown) [Chlorethoxyfos],,,,,,,,,,,,0.75 µM,7.79 µM,11.4 µM,35.9%,"p53 activation EC50 [1]: inactive; p53 activation efficacy [1]: inactive; p53 activation efficacy [2]: 53.0303; EC50 ([2]; read-out: p53 activation EC50): 11.7 µM; p53 activation EC50 [3]: inactive; Viability EC50 (p53RE-bla HCT-116 cells): inactive; Viability efficacy (p53RE-bla HCT-116 cells): inactive; Emax [4, 12]: 43.1%; Emax [5, 12]: 44%"
Nc1nc(Cl)nc2c1ncn2[C@H]1C[C@H](O)[C@@H](CO)O1 [Cladribine],,,,,,,,,,,,,,,,"p53 activation efficacy [1]: 91.229; Emax ([1]; Homo sapiens, HCT-116, read-out: p53 activation efficacy): 81%; EC50 ([1]; read-out: p53 activation EC50): 0.665 µM; p53 activation efficacy [2]: 33.0267; p53 activation EC50 [3]: inactive; Viability EC50 (p53RE-bla HCT-116 cells): inactive; Viability efficacy (p53RE-bla HCT-116 cells): inactive; Emax [4, 12]: 45.7%; Emax [5, 12]: 47.1%"
CNP(=O)(OC)Oc1ccc(C(C)(C)C)cc1Cl (stereo not shown) [Crufomate],inactive,inactive,inactive,inactive,inactive,inactive,inactive,inactive,,4.17 µM,inactive,0.33 µM,3.29 µM,4.36 µM,66.6%,
CCOP(=O)(OCC)Oc1cc(C)nc(C(C)C)n1 [Diazoxon],,,,,,,,,,,,3.83 µM,13.9 µM,6.57 µM,43.6%,"p53 activation EC50 [1]: inactive; p53 activation efficacy [1]: inactive; Emax ([6]; Homo sapiens): 58.5%; Emax [7]: 61.3%; p53 activation EC50 [3]: inactive; Viability EC50 (p53RE-bla HCT-116 cells): inactive; Viability efficacy (p53RE-bla HCT-116 cells): inactive; EC50 ([5]; HCT-116, read-out: p53 activation EC50): 20.2 µM; Emax [5, 12]: 39.6%"
COP(=S)(OC)Oc1ccc(SC)c(C)c1 [Fenthion],inactive,inactive,inactive,inactive,inactive,inactive,inactive,inactive,8.91 µM,1.1 µM,inactive,1.28 µM,8.86 µM,7.81 µM,39%,"EC50 [2, 13]: 7.2 µM"
CNC(=O)Oc1ccccc1C(C)C [Isoprocarb],inactive,inactive,inactive,inactive,inactive,inactive,inactive,inactive,12 µM,8.87 µM,inactive,,,,,"EC50 [2, 13]: 12.5 µM"
COP(=S)(OC)SCN1C(=O)c2ccccc2C1=O [Phosmet],inactive,inactive,inactive,inactive,inactive,inactive,inactive,inactive,,7.57 µM,inactive,18.7 µM,8.04 µM,11.6 µM,52.6%,Emax ([6]; Homo sapiens): 48.2%; Emax [7]: 49%
CCOP(=S)(OCC)OP(=S)(OCC)OCC [Sulfotepp],inactive,inactive,inactive,inactive,inactive,inactive,inactive,inactive,,21.6 µM,inactive,,16.6 µM,14.3 µM,37.4%,EC50 [6]: Inactive; Emax [7]: 42.1%
Nc1nc(N)c2nc(-c3ccccc3)c(N)nc2n1 [Triamterene],,inactive,inactive,inactive,inactive,inactive,inactive,inactive,30.5 µM,16.4 µM,,,,,,"EC50 [1, 8]: 28.7 µM; EC50 [1, 9]: 27.6 µM; EC50 [2, 13]: 42.4 µM"
CCCCSP(=O)(SCCCC)SCCCC [Tribufos],,,,,,,,,,,,0.74 µM,1.32 µM,2.16 µM,44.2%,"p53 activation EC50, cherry pick confirmation [1]: inactive; p53 activation EC50, primary screening [1]: inactive; p53 activation efficacy, cherry pick confirmation [1]: inactive; p53 activation efficacy, primary screening [1]: inactive; p53 activation EC50, cherry pick confirmation [3]: inactive; p53 activation efficacy, cherry pick confirmation [3]: inactive; Viability EC50, cherry pick confirmation (p53RE-bla HCT-116 cells): inactive; Viability EC50, primary screening (p53RE-bla HCT-116 cells): inactive; Viability efficacy, cherry pick confirmation (p53RE-bla HCT-116 cells): inactive; Viability efficacy, primary screening (p53RE-bla HCT-116 cells): inactive; EC50 ([4]; HCT-116, read-out: p53 activation EC50, cherry pick confirmation): 1.86 µM; Emax ([4]; HCT-116, read-out: p53 activation efficacy, cherry pick confirmation): 41.6%; Emax [4, 14]: 36%; Emax [5, 14]: 34.6%"

# Source: PMC9151520 (Archives of Toxicology, 2022)
